Test results taken from patent publication US8088433B2, “Mononuclearly filled microcapsules” (Symrise AG, priority 2001, dated 2012).

How the values were obtained:
[1] = cited from earlier work; for logPo/w / logKo/w: n-octanol/water distribution coefficient; for Log Ko/w: components of the Model flavor, Table 9; for logKo/w: log10[co/cw], grouping of flavor substances by difficulty of encapsulation
[2] = flavor retention of Model-flavor components in alginate capsules, short continuous vs long batch gelling (ether extraction, HRGC/MS); type: physicochemical; settings: wet alginate capsules, 5% calcium chloride, relative to Model-flavor solution theoretically encapsulated; for Flavor Retention, Short Gel Time (continuous): dwell time 1 minute; for Flavor Retention, Long Gel Time (Batch): dwell time 2 hours
Protocol: 50 g sodium alginate were dissolved in 195 g demineralized water using a high speed kneading mixer of the type Ultra-Turrax. 250 g Model-flavor were dissolved in 750 g neutral oil. The Model flavor was comprised of flavor components, which cover a large spectrum of water/oil solubility as indicated by logKo/w-values, see the following Table 9.
The two solutions (alginate, flavor) were conveyed to a vibrating two-stream nozzle head with an inner diameter of 150 μm and an outer diameter of 500 μm. The flow rates were adjusted for the flavor solution to 500 g per hour and for the shell solution to 1000 g per hour, the vibration frequency was adjusted to 200 Hz.
For the preferred short continuous gelling process the formed discrete droplets fell into a pipe reactor, which was filled with 5% calcium chloride, and were so transported, that the dwell time was 1 minute.
The results of the 1 minute capsule production (corresponding to 8.3 g encapsulated flavor solution) were then dissolved in 200 ml 1% aqueous […] solution. The mixture was then extracted for 4 hours in a perforator with diethyl ether. The diethyl ether extract was analyzed using HRGC/MS. The results were evaluated based on the surface of the GC/MS peaks for the components per gram of encapsulated aroma solution.
For the batch gelled process the formed discrete droplets fell into a 5% calcium chloride containing reactor with a dwell time of 2 hours. […] The same analytical protocol was carried out as for the short gel time process.
10 g Model-flavor solution were dispersed in 200 ml 1% aqueous sodium citrate solution. The mixture was extracted in a perforator for 4 hours with diethyl ether and evaluated as described above.
The flavor retention for the respective flavor components during the short continuous gelling process and the long gel batch process were calculated on the basis of the amount of the Model-flavor solution which originally flowed through the nozzle system and theoretically was encapsulated, the results are presented in Table 10.

[3] = flavor retention of Model-flavor components in alginate capsules, drying with silicon dioxide vs fluidized bed drying; type: physicochemical; settings: for Convective Drying: % Retention: 200 g wet capsules dried in fluidized bed dryer at 30° C., 100 m^3 per hour air flow, shell water content 62%; for Drying "water adsorbing" Substances: % Retention: 200 g wet capsules mixed 10 minutes with 100 g silicon dioxide, shell water content 45%

SMILES: CC=O [Acetaldehyde]
- logPo/w [1]: −0.16

SMILES: CCCCCCCC(=O)OCC [Ethylcaprylate]
- Flavor Retention, Short Gel Time (continuous) [2]: 90%
- Flavor Retention, Long Gel Time (Batch) [2]: 90%
- Convective Drying: % Retention [3]: 65%
- Drying "water adsorbing" Substances: % Retention [3]: 0%
- Log Ko/w [1]: 3.9

SMILES: O=Cc1ccccc1 [benzaldehyde]
- Flavor Retention, Short Gel Time (continuous) [2]: 82%
- Flavor Retention, Long Gel Time (Batch) [2]: 11%
- Convective Drying: % Retention [3]: 52%
- Drying "water adsorbing" Substances: % Retention [3]: 80%

SMILES: C=C1CCC2CC1C2(C)C (stereo not drawn) [beta-pinene]
- logKo/w [1]: 4.37

SMILES: C=C(C)C1CC=C(C)C(=O)C1 (stereo not shown) [carvone]
- logKo/w [1]: 2.23

SMILES: CC(=O)C(C)=O [diacetyl (butanedione), butanedione]
- logKo/w [1]: 1.33

SMILES: CCCC(=O)OCC [ethyl butyrate]
- logKo/w [1]: 1.77
- logPo/w [1]: 1.73

SMILES: CCOC(=O)C(C)O (stereo not shown) [ethyl lactate]
- logKo/w [1]: 0.88

SMILES: CCOC(=O)CC [ethyl propionate]
- Flavor Retention, Short Gel Time (continuous) [2]: 61%
- Flavor Retention, Long Gel Time (Batch) [2]: 0%
- Convective Drying: % Retention [3]: 4%
- Drying "water adsorbing" Substances: % Retention [3]: 50%
- Log Ko/w [1]: 1.24
- logKo/w [1]: 1.24

SMILES: CCCCCC(=O)OCC [ethyl-caproate]
- logKo/w [1]: 2.83

SMILES: CCOC(C)=O [ethylacetate]
- logKo/w [1]: 0.75

SMILES: CCCCCCC1CCC(=O)O1 (stereo not shown) [gamma-decalactone]
- logKo/w [1]: 2.42

SMILES: CC(=O)OCCC(C)C [isoamyl acetate]
- Flavor Retention, Short Gel Time (continuous) [2]: 80%
- Flavor Retention, Long Gel Time (Batch) [2]: 18.5%
- Convective Drying: % Retention [3]: 60%
- Drying "water adsorbing" Substances: % Retention [3]: 95%
- Log Ko/w [1]: 2.12
- logPo/w [1]: 2.12

SMILES: CC(C)CCO [isoamyl alcohol]
- logKo/w [1]: 1.28
- logPo/w [1]: 1.22

SMILES: C=CC(C)(O)CCC=C(C)C (stereo not shown) [linalool]
- logKo/w [1]: 3.28
